Test results taken from article PMC9958940 (Viruses, 2023).
Like-named read-outs stand apart in the source and are kept apart here. Starred links: 1 amine or outer side, 2 acyl side, 3 side chain; linkers in the order of their positions; H or OH if unused. Positions of bridges follow the written chain, without caps; N, C: chain ends. Non-standard residues stand in square brackets, D forms with d. Residues, ends and D or L forms follow the SMILES beside them. *: point of attachment. hTyr(3S-OH,4S-OH,3'-OSO3H) = N[C@H](C(=O)O)[C@H](O)[C@@H](O)c1ccc(O)c(OS(=O)(=O)O)c1; pTerphenylCO(4''-OnC5H11) = CCCCCOc1ccc(-c2ccc(-c3ccc(C(=O)*)cc3)cc2)cc1; Orn(4R-OH,5R-OH) = O=C([C@H](C[C@@H](O)[C@@H](O)N[*:3])N[*:1])[*:2]; hTyr(3S-OH,4S-OH) = N[C@H](C(=O)O)[C@H](O)[C@@H](O)c1ccc(O)cc1; Pro(3S-OH,4S-Me) = C[C@H]1CN[C@H](C(=O)O)[C@H]1O; X1 = CCCCCOc1ccc(-c2cc(-c3ccc(C(=O)*)cc3)no2)cc1; Gln(3R-OH) = NC(=O)C[C@@H](O)[C@H](N)C(=O)O; Hyp = O=C(O)[C@@H]1C[C@@H](O)CN1

How the values were obtained:
SARS-CoV-2 Wuhan strain [1] = assay type: cell-based
SARS-CoV-2 Wuhan strain [2] = conditions: VeroE6/TMPRSS2 cells, essentially in the same experimental condition; ref Ohashi et al. [29]; read-out: SARS-CoV-2 RNA IC50; cited from earlier work
VeroE6/TMPRSS2 cells = conditions: read-out: Cell Viability CC50, essentially in the same experimental condition, ref Ohashi et al. [29]; cited from earlier work
SARS-CoV-2 Wuhan strain [3] = assay: microbe, parasite or virus in culture; assay type: cell-based; conditions: VeroE6/TMPRSS2 cells; for IC50: Severe acute respiratory syndrome coronavirus 2, Wuhan strain, MOI 0.003, extracellular viral RNA at 24 h
[4] = Cell viability (cell-counting kit-8, WST-8) in VeroE6/TMPRSS2 cells; assay type: cell-based; conditions: African green monkey, 24 h with compound
[5] = test system: Dengue virus serotype 2 (DENV-2); design: method as in ref [12] = [12]; conditions: Vero cells; ref [12]; read-out: IC50, DENV-2 infection; cited from earlier work
Zika virus (ZIKV) = test system: Zika virus (ZIKV); design: method as in ref [14] = [14]; conditions: Vero cells; ref [14]; read-out: IC50, ZIKV infection; cited from earlier work
SARS-CoV-2 Wuhan strain [6] = assay: microbe, parasite or virus in culture; assay type: cell-based; conditions: Severe acute respiratory syndrome coronavirus 2, 24 h, Calu-3 cells, 3 h inoculation plus 21 h, read-out: SARS-CoV-2 RNA IC50
[7] = Cell viability (cell-counting kit-8, WST-8) in Calu-3 cells; assay type: cell-based; conditions: human, 24 h with compound
[8] = test system: Enterovirus 71 (EV71) replicon; design: method as in ref [10] = [10]; conditions: Vero cells, estimated; ref [10]; read-out: IC50 to luciferase carrying EV71 replicon; cited from earlier work
[9] = test system: Chikungunya virus (CHIKV); design: method as in ref [11] = [11]; conditions: U2OS or BHK-21 cells; ref [11]; read-out: IC50, CHIKV infection; cited from earlier work
SARS-CoV-2 = conditions: Vero cells, read-out: IC50, SARS-CoV-2 infection, cited from earlier work
helicase of DENV-2 = biological target: helicase of DENV-2; design: method as in ref [13] = [13]; conditions: in vitro; ref [13]; read-out: IC50, DENV-2 helicase enzymatic activity; cited from earlier work
3CLpro = test system: 3CLpro; design: method as in ref [33] = [33]; conditions: in vitro; ref [33]; read-out: IC50, 3CLpro enzymatic activity; cited from earlier work
[10] = design: method as in ref [7] = [7]; conditions: human adults, 100 mg daily; ref [7]; cited from earlier work

CCC(CC)COC(=O)[C@H](C)N[P@](=O)(OC[C@H]1O[C@@](C#N)(c2ccc3c(N)ncnn23)[C@H](O)[C@@H]1O)Oc1ccccc1 [Remdesivir]
effect on viral RNA levels, compound added at post-entry phase (SARS-CoV-2 Wuhan strain [1]): remarkable antiviral activity
effect on viral RNA levels, compound added at virus entry phase (SARS-CoV-2 Wuhan strain [1]): no inhibitory effect
IC50 (SARS-CoV-2 Wuhan strain [2]): 1.58 µM
CC50 (VeroE6/TMPRSS2 cells): > 64 µM

COc1ccc2cc1Oc1ccc(cc1)C[C@H]1c3c(cc4c(c3Oc3cc5c(cc3OC)CCN(C)[C@@H]5C2)OCO4)CCN1C [Cepharanthine]
effect on viral RNA levels, compound added at post-entry phase (SARS-CoV-2 Wuhan strain [1]): lower viral activity
effect on viral RNA levels, compound added at virus entry phase (SARS-CoV-2 Wuhan strain [1]): considerable inhibition
IC50 (SARS-CoV-2 Wuhan strain [2]): 0.35 µM
CC50 (VeroE6/TMPRSS2 cells): 25.1 µM

CC[C@H](C)C[C@H](C)CCCCCCCCC(=O)N[C@H]1C[C@@H](O)[C@@H](NCCN)NC(=O)[C@@H]2[C@@H](O)CCN2C(=O)[C@H]([C@H](O)CCN)NC(=O)[C@H]([C@H](O)[C@@H](O)c2ccc(O)cc2)NC(=O)[C@@H]2C[C@@H](O)CN2C(=O)[C@H]([C@@H](C)O)NC1=O [Caspofungin]
IC50 (SARS-CoV-2 Wuhan strain [3]): > 64 µM
effect on viral RNA levels (in words) (SARS-CoV-2 Wuhan strain [3]; up to 64 µM): did not show any antiviral effect
CC50 at 24 h [4]: > 64 µM
IC50 [5]: 20.8 µM
IC50 (Zika virus (ZIKV)): 75.8 µM

CCCCCOc1ccc(-c2cc(-c3ccc(C(=O)N[C@H]4C[C@@H](O)[C@@H](O)NC(=O)[C@@H]5[C@@H](O)[C@@H](C)CN5C(=O)[C@H]([C@H](O)CC(N)=O)NC(=O)[C@H]([C@H](O)[C@@H](O)c5ccc(O)c(OS(=O)(=O)O)c5)NC(=O)[C@@H]5C[C@@H](O)CN5C(=O)[C@H]([C@@H](C)O)NC4=O)cc3)no2)cc1 [Micafungin] (X1-[Orn(4R-OH,5R-OH)]T[Hyp][hTyr(3S-OH,4S-OH,3'-OSO3H)][Gln(3R-OH)][Pro(3S-OH,4S-Me)]; lactam 1-C)
IC50 (SARS-CoV-2 Wuhan strain [3]): 26.1 µM
selectivity index (SI = CC50/IC50) (SARS-CoV-2 Wuhan strain [3]): > 2.45
CC50 at 24 h [4]: > 64 µM
IC50 (SARS-CoV-2 Wuhan strain [6]): 55.3 µM
CC50 at 24 h [7]: > 64 µM
IC50 [8]: 5 to 8 µM
IC50 [9]: 20.6 µM
IC50 [5]: 10.2 µM
IC50 (Zika virus (ZIKV)): 7.35 µM
IC50 (SARS-CoV-2; ref [15]): 5.5 to 12.9 µM
IC50 (helicase of DENV-2): 4.98 µM
IC50 (3CLpro): 47.6 µM
half-life [10]: 11 to 17 h

CCCCCOc1ccc(-c2ccc(-c3ccc(C(=O)N[C@H]4C[C@@H](O)[C@@H](O)NC(=O)[C@@H]5[C@@H](O)[C@@H](C)CN5C(=O)[C@H]([C@@H](C)O)NC(=O)[C@H]([C@H](O)[C@@H](O)c5ccc(O)cc5)NC(=O)[C@@H]5C[C@@H](O)CN5C(=O)[C@H]([C@@H](C)O)NC4=O)cc3)cc2)cc1 [Anidulafungin] ({pTerphenylCO(4''-OnC5H11)}-[Orn(4R-OH,5R-OH)]T[Hyp][hTyr(3S-OH,4S-OH)]T[Pro(3S-OH,4S-Me)]; lactam 1-C)
IC50 (SARS-CoV-2 Wuhan strain [3]): 7.09 µM
CC50 at 24 h [4]: 24.6 µM
IC50 [5]: 3.24 µM
IC50 (Zika virus (ZIKV)): 2.08 µM
IC50 (SARS-CoV-2; ref [16]): 4.64 µM
